Measured values published in US7314726B2, “Beta secretase exosite binding peptides and methods for identifying beta secretase modulators” (Bristol-Myers Squibb Company, priority 2002, dated 2008).
Alexa488 = Alexa Fluor 488 fluorescent label

Experiments:
BACE [1] = molecular target: T1, BACE (Homo sapiens, UniProt P56817); assay: Competitive binding assay, displacement of labeled EBP from BACE, fluorescence anisotropy; design: The cDNA for the catalytic domain of human BACE (residues 1-460) was PCR-amplified; human IgG1 heavy chain (C, cleaved yes); thrombin cleavage site (C); made in house; host or cells: CHO DG44 cells (stably transfected, secreted)
T1 sequence (P56817 46-460 limits assumed): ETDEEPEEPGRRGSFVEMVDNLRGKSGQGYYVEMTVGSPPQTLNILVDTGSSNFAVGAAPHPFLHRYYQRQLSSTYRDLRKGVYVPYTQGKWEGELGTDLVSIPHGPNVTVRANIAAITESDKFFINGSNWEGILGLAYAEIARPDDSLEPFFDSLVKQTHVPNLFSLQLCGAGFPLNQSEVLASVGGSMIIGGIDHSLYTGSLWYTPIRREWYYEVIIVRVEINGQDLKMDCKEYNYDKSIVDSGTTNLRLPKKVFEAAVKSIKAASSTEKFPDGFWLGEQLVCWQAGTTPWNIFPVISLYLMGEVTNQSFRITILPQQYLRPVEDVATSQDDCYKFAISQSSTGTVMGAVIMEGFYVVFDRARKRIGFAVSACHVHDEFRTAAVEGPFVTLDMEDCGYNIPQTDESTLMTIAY
Description: The competitive binding assay was carried out at pH 7.1 (PBS buffer) or pH 4.5 (50 mM acetate buffer). The fluorescence anisotropy was measured at 25° C. in an AVIV fluorometer. The excitation and emission wavelengths were set to 495 and 519 nm, respectively. The excitation and emission slit widths were 4 and 10 nm, respectively.
The initial anisotropy value was measured. A concentrated unlabeled peptide or compound stock was titrated into the above solution of EBP and BACE. The final concentration of unlabeled peptide or compound ranges from 20 to 20000 nM. After each addition, the solution was mixed for 10 times with a pipettor. The fluorescence anisotropy was averaged over a 5 minute period.
The change in anisotropy was converted to fractional occupancy based on the r0 and rb obtained from the binding assay. The fractional occupancy was then plotted against the concentration of the competing peptide or compound. (see, for example, FIG. 6) The Kd of the competing ligand was calculated from curve fitting using the program […]™ (Synergy Software, Reading, Pa.). The equation used to fit the competition data is identical to equation 4 in Lai et al., (2000) Arch. Biochem. Biophys. 381:278-284.
The truncated unlabeled peptides were screened at a single concentration of 10 μM at pH 4.5. The anisotropy values detected with Molecule X in the absence of inhibitor, i.e., truncated unlabeled peptide (ra) and in the presence of the inhibitor (rb) and the labeled peptide alone (r0) were used to calculate the percent of inhibition: 100 (ra-rb)/(ra-r0). The percent of inhibition was compared among the truncated peptides.

BACE [2] = molecular target: T1, BACE; assay: Phage ELISA of phage-displayed peptides on immobilised BACE; assay type: binding; design: The cDNA for the catalytic domain of human BACE (residues 1-460) was PCR-amplified; human IgG1 heavy chain (C, cleaved yes); thrombin cleavage site (C); made in house; host or cells: CHO DG44 cells (stably transfected, secreted); conditions: clones from solid phase panning at pH 7.0
Description: Two highly selected and homologous 12 mer phage peptides bound BACE specifically and reproducibly in phage-ELISA tests. Bristol-Myers Squibb fUSE5-based C4C, C6C, 5- and 15 mer libraries, and M13-based C7C libraries, and 7- and 12 mer libraries obtained from New England Biolabs, Beverly, Mass. were panned for three cycles against BACE (produced as described herein in Example 3). BACE was immobilized by coating at 0.5 μg/well in 4 wells of Dynex Immulon 4HBX plates overnight at 4° C. in 0.1M NaHCO3 buffer, pH 9.0. Panning was by standard procedures at room temperature that involved blocking wells with 2% BSA in PBS and elution with 0.1M HCL, pH 2.2. The vector NTI alignment tool and visual inspection of sequences were employed to analyze the selected peptides.
After sequencing approximately 20-50 clones from each library after three cycles of selection, we prepared essentially all possible candidate clones (39 clones in total) for phage-ELISA to obtain direct evidence for affinity to BACE. […] We therefore sequenced additional 12 mer clones to try to find additional candidate clones. […] This […] (SEQ ID NO:20) peptide is homologous to […] (SEQ ID NO:19) and consistent with the specific binding of both those peptides to BACE. The […] (SEQ ID NO:20) peptide and […] (SEQ ID NO:19) peptides were the two most efficiently recovered clones with 13 and 9 copies, respectively. […]

BACE [3] = molecular target: T1, BACE; assay: Isothermal titration calorimetry (ITC) of BACE and peptides; assay type: binding; design: The cDNA for the catalytic domain of human BACE (residues 1-460) was PCR-amplified; human IgG1 heavy chain (C, cleaved yes); thrombin cleavage site (C); made in house; host or cells: CHO DG44 cells (stably transfected, secreted); conditions: 25° C.
Description: Isothermal titration calorimetry was performed to determine quantitatively the binding affinities of BMS-561877 and BMS-561871 for β-secretase. Recombinant human BACE was expressed as a fusion protein with human IgG1, in Chinese hamster ovary (CHO) cells (Vassar et al., (1999) Science 286:735-741 and Haniu et al., (2000) J. Biol. Chem. 275:21099-21106).
This construct, referred to as BACE-T-IgG, also contained a protease cleavage site between BACE and IgG1, sensitive to human α-thrombin. The cDNA for the catalytic domain of human BACE (residues 1-460) was PCR-amplified and subcloned into the mammalian expression vector pTV1.6, upstream of a thrombin cleavage site linked to cDNA encoding human IgG1 heavy chain. The vector construct, pTV1.6-BACE-T-IgG, was used to produce stably transfected DHFR-deficient CHO DG44 cells, which were then scaled up using methotrexate for selection.
The clarified growth media harvested from CHO DG44 cells which contained the fusion protein was loaded onto a rProtein A SEPHAROSE™ column (5×20 cm, Amersham Pharmacia Biotech) using a peristaltic pump at 4° C., at 4 mL/min. The column was washed with Dulbecco's PBS, pH 7.1, 4 mL/min, until baseline absorbance at 280 nm was observed. BACE-T-IgG was eluted from the resin with 0.10 M citrate, pH 3.0, into tubes containing 0.5 volumes of 4 M Tris, pH 8. Fractions containing the fusion protein were dialyzed extensively using 12,000-14,000 […] MWCO membrane (UltraPURE, GIBCO BRL) against PBS, pH 7.1, at 4° C. The protein was sterile filtered (0.22 μm) and stored at 4° C.
To generate BACE for binding experiments, the fusion protein BACE-T-IgG was treated with human α-thrombin (Enzyme Research Labs, South Bend, Ind.) at a ratio of 1:500 (mass:mass) in Dulbecco's PBS, pH 7.1, at 37° C. for 2 hr. Human α-thrombin was removed by passing the sample over Benzamidine SEPHAROSE™ 6B column (Amersham Pharmacia Biotech). The cleaved IgG1 was captured by passing the solution over a rProtein A SEPHAROSE™ (Amersham Pharmacia Biotech) column, whereas the BACE passed through this column. The protein sample was further purified by concentrating to 10-15 mg/mL using a centrifugation concentration unit (Millipore Ultrafree 10 kDa MWCO, 15 mL unit) and loading onto a SUPERDEX™ 200 PC 3.2/30 gel-filtration column (Amersham Pharmacia Biotech). The column was run at 3 mL/min with Dulbecco's PBS, pH 7.1, at room temperature. Fractions containing BACE were combined, sterile filtered (0.22 μm) and stored at 4° C.
BACE was prepared for isothermal titrating calorimetry by extensive dialysis against fresh buffer at 4° C. using 12,000-14,000 […] MWCO dialysis membrane (UltraPURE, GIBCO BRL). […] Following 2 buffer changes, the protein was removed from the membrane and centrifuged (5 min×4000 g, 4° C.) to remove particulates. The protein was stored at 4° C. until needed for the calorimetry experiments. The protein concentration was determined by 10-fold dilution into the same buffer, and measuring the UV absorbance at 280 nm in a 1.00 cm pathlength cell (calculated value=1.22 AU=1.00 mg/mL protein, based on mean glycosylated molecular weight=53.5 kDa, and given amino acid composition). Final concentrations used in isothermal titrating calorimetry were typically 5.0 μM, containing a final concentration of 0.5% v/v DMSO.
Peptides were dissolved in the buffer dialysate from protein dialysis, and equal volumes of DMSO were added to each (0.5% v/v DMSO). The pH values of the solutions were adjusted as necessary to equal that of the buffer dialysate and protein sample within 0.01 pH units.

[4] = molecular target: T2, catalytic domain of human BACE expressed in a CHO cell line (Homo sapiens, UniProt P56817); assay: Fluorescently labeled EBP binding to BACE, fluorescence anisotropy; conditions: pH 4.5 (50 mM acetate), 25° C., 1:1 binding model; read-out: binding constant (Kd) of labeled EBP
T2 construct: The cDNA for the catalytic domain of human BACE (residues 1-460) was PCR-amplified; human IgG1 heavy chain (C, cleaved yes); thrombin cleavage site (C); made in house; host or cells: CHO DG44 cells (stably transfected, secreted)
T2 sequence (P56817 46-460 limits assumed): as above
Description: An assay to evaluate the binding of BACE to EBPs labeled with a fluorescent molecule (for example, but not limited to Alexa488) was developed. This assay uses the catalytic domain of human BACE expressed in a CHO cell line (according to Example 3) and labeled EBPs such as Molecule X shown in FIG. 4. The change in fluorescent anisotropy of the EBP peptide upon binding to BACE is monitored.
Peptides were dissolved in 100% DMSO (dimethyl sulfoxide) at 10 mM concentration, and then diluted 10-fold into deionized water. The concentration of the labeled peptides was determined by their absorbance at 495 nm (ε=71000 cm^−1M^−1). The concentration of selected unlabeled peptides was determined by their Tyr absorbance at 276 nm (ε=1390 cm^−1M^−1 per Tyr residue).
The binding was carried out at pH 7.1 (PBS buffer) and pH 4.5 (50 mM acetate buffer) in the presence of 1% DMSO. Fluorescence anisotropy was measured at 25° C. in an AVIV fluorometer. The excitation and emission wavelengths were set to 495 and 519 nm, respectively. The excitation and emission slit width were 4 and 10 nm, respectively. A concentrated BACE stock was used to titrate a 300 μl solution of 10 nM labeled EBP. The final BACE concentration ranges from 10 to 5000 nM. After the addition of BACE, the solution was mixed for 10 times with a pipettor. The fluorescence anisotropy was averaged over a 5 minute period.
The change in anisotropy was plotted against the BACE concentration (see, for example, FIG. 5). The Kd of the labeled EBP as well as the initial (r0) and final anisotropy (rb) of the labeled EBP were calculated from curve fitting using the program Kaleidagraph. The equation used to fit the binding data is identical to equation 1 in Lai et al., (2000) Arch. Biochem. Biophys. 381:278-284.

CC[C@H](C)[C@H](NC(=O)[C@H](Cc1ccccc1)NC(=O)[C@H](Cc1ccc(O)cc1)NC(=O)[C@@H]1CCCN1C(=O)[C@H](Cc1ccc(O)cc1)NC(C)=O)C(=O)N1CCC[C@H]1C(=O)N[C@@H](CC(C)C)C(N)=O [BMS-593925, Tyr-Pro-Tyr-Phe-Ile-Pro-Leu]
Kd (BACE [1]; pH 4.5, displacement of Molecule Y1, read-out: Kd of unlabeled EBP by competition): 1200 nM

Ac-ALYPYFLPISAK-NH2 [BMS-561877]
phage ELISA binding to BACE (BACE [2]): specific binding to BACE

Ac-HWPFFIRS-NH2 [BMS-655507]
KA (BACE [3]; 50 mM NaOAc, pH 4.5): 610000 M⁻¹ | Kd (BACE [3]; 50 mM NaOAc, pH 4.5): 1640 nM | TΔS (BACE [3]; 50 mM NaOAc, pH 4.5): -5.46 kcal/mol | ΔG (BACE [3]; 50 mM NaOAc, pH 4.5): -7.90 kcal/mol | ΔH (BACE [3]; 50 mM NaOAc, pH 4.5): -13.35 kcal/mol | KA (BACE [3]; Dulbecco's PBS, pH 7.0): 1.09e+06 M⁻¹ | Kd (BACE [3]; Dulbecco's PBS, pH 7.0): 914 nM | TΔS (BACE [3]; Dulbecco's PBS, pH 7.0): -9.81 kcal/mol | ΔG (BACE [3]; Dulbecco's PBS, pH 7.0): -8.23 kcal/mol | ΔH (BACE [3]; Dulbecco's PBS, pH 7.0): -18.04 kcal/mol

LYPPYIF (Ac-LYPPYIF-NH2) [BMS-599271, scrambled peptide containing the same amino acids as BMS-593925]
binding to BACE (BACE [1]; scrambled peptide): does not bind to BACE

Molecule Y2: analog of Molecule Y1 with different length of linker between Alexa488 and the peptide (Ac-YPYFIPL-Alexa488; also: linker between peptide and Alexa488 not given here)
Kd [4]: 92 nM

Molecule Y4: analog of Molecule Y1 with different length of linker between Alexa488 and the peptide (Ac-YPYFIPL-Alexa488; also: linker between peptide and Alexa488 not given here)
Kd [4]: 62 nM
